Measured values from patent publication US8501431B2, “Method for screening for compounds selectively interacting with RAD9” (Magnachem International Laboratories, Inc., priority 2008, dated 2013).
“Also recorded” adds a separate entry of the source.

Test system: mutant strains of Saccharomyces cereviseae (gene rad9)
Test: Bioassay on solid mediums with Securolide on mutant strains of Saccharomyces cereviseae
Type: cell-based
Settings: concentration between ten and one hundred micrograms/milliliter, set of mutant strains, specifically the gene rad9
Procedure: Bioassays on solid mediums were performed with Securolide (LMSV-6) in a concentration between ten and one hundred micrograms/milliliter on a set of mutant strains of Saccharomyces cereviseae with DNA similar to that in tumor/cancer cells.

## C=C1CCOC1=O [Securolide]
  cytoxic activity: cell death of Rad9 mutant yeast strains; also recorded: marked cytoxic activity only on the mutant strains
